Source: US10344060B2 (priority 2013, dated 2019)
Several values for one entry are separate records, joined by “and”; a condition that tells them apart may be missing. Equal values may be shown once. Read-outs that look alike come from different tables or passages of the source.

Tests used:
Assay in all cases: cell-based
hNav1.7 [1] = biological target: T1, hNav1.7 (Homo sapiens, UniProt Q15858); type: cell-based; conditions: read-out: PX hNav1.7 Tonic IC50
mNav1.7 = mNav1.7 (Mus musculus, UniProt Q62205); conditions: for IC50: PatchXpress, tonic block, mouse Nav1.7, read-out: PX mNav1.7 Tonic IC50; for mNav1.7/hNav1.7: ratio of PX tonic IC50, mouse Nav1.7 over human Nav1.7
hNav1.7 [2] = biological target: T1, hNav1.7; conditions: IonWorks Quattro; […]; read-out: IC50 (μM) Nav1.7
hNav1.5 [3] = biological target: T2, hNav1.5 (Homo sapiens, UniProt Q14524); conditions: IonWorks Quattro; Table 9; read-out: IC50 (μM) Nav1.5
T2 sequence (Q14524 whole entry): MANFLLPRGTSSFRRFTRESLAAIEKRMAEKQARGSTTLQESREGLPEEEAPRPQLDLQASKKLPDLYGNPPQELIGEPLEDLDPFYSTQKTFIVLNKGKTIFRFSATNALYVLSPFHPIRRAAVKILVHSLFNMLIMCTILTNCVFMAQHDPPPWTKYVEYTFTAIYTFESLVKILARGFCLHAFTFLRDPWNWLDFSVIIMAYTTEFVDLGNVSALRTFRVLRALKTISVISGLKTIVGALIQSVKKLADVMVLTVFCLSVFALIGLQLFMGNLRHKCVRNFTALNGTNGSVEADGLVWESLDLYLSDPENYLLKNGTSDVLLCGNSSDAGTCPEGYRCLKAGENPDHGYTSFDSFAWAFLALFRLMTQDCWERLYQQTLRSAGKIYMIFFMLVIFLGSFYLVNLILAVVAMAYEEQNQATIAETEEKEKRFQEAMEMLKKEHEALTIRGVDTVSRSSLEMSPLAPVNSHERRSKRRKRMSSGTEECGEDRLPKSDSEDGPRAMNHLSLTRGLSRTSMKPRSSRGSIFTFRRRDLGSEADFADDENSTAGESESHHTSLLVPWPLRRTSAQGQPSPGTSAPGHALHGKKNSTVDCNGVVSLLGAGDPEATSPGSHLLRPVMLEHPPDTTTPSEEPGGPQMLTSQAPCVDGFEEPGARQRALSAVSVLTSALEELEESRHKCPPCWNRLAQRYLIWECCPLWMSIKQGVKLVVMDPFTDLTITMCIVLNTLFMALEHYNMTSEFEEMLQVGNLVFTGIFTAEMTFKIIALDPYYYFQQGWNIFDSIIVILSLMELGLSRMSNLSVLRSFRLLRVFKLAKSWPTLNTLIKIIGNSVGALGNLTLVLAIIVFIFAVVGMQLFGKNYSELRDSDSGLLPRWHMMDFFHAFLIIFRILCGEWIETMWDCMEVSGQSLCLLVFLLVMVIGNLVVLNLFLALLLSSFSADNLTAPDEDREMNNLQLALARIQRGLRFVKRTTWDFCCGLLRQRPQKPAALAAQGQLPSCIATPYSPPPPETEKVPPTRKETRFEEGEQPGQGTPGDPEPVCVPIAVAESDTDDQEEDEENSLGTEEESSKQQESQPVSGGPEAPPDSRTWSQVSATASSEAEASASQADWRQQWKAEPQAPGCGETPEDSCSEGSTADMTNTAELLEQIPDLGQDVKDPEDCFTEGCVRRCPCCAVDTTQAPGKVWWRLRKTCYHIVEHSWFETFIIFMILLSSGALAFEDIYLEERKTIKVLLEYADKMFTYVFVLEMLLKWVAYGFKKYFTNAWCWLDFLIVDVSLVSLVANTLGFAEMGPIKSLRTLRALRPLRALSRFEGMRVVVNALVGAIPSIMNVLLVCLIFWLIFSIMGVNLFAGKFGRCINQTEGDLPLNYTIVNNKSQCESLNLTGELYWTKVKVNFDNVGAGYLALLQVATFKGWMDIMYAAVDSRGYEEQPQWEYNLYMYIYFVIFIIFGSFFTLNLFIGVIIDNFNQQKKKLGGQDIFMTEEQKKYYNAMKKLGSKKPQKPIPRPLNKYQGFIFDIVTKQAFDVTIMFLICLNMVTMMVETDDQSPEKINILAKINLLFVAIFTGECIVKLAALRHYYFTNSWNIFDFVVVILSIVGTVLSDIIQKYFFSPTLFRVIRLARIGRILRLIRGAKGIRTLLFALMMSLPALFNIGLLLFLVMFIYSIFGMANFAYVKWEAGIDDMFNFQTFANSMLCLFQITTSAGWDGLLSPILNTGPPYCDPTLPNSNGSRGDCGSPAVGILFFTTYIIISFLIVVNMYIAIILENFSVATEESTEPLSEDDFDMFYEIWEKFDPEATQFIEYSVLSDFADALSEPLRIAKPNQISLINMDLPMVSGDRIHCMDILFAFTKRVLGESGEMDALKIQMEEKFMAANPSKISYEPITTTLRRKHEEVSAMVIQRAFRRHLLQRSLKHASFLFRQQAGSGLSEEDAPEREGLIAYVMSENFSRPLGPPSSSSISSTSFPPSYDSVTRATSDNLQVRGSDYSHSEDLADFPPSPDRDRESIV

hNav1.4 [4] = biological target: T3, hNav1.4 (Homo sapiens, UniProt P35499); type: cell-based; conditions: Table 9; for IC50: IonWorks Quattro, read-out: IC50 (μM) Nav1.4; for Nav1.4/Nav1.7: ratio of IonWorks Quattro IC50 values
T3 sequence (P35499 whole entry): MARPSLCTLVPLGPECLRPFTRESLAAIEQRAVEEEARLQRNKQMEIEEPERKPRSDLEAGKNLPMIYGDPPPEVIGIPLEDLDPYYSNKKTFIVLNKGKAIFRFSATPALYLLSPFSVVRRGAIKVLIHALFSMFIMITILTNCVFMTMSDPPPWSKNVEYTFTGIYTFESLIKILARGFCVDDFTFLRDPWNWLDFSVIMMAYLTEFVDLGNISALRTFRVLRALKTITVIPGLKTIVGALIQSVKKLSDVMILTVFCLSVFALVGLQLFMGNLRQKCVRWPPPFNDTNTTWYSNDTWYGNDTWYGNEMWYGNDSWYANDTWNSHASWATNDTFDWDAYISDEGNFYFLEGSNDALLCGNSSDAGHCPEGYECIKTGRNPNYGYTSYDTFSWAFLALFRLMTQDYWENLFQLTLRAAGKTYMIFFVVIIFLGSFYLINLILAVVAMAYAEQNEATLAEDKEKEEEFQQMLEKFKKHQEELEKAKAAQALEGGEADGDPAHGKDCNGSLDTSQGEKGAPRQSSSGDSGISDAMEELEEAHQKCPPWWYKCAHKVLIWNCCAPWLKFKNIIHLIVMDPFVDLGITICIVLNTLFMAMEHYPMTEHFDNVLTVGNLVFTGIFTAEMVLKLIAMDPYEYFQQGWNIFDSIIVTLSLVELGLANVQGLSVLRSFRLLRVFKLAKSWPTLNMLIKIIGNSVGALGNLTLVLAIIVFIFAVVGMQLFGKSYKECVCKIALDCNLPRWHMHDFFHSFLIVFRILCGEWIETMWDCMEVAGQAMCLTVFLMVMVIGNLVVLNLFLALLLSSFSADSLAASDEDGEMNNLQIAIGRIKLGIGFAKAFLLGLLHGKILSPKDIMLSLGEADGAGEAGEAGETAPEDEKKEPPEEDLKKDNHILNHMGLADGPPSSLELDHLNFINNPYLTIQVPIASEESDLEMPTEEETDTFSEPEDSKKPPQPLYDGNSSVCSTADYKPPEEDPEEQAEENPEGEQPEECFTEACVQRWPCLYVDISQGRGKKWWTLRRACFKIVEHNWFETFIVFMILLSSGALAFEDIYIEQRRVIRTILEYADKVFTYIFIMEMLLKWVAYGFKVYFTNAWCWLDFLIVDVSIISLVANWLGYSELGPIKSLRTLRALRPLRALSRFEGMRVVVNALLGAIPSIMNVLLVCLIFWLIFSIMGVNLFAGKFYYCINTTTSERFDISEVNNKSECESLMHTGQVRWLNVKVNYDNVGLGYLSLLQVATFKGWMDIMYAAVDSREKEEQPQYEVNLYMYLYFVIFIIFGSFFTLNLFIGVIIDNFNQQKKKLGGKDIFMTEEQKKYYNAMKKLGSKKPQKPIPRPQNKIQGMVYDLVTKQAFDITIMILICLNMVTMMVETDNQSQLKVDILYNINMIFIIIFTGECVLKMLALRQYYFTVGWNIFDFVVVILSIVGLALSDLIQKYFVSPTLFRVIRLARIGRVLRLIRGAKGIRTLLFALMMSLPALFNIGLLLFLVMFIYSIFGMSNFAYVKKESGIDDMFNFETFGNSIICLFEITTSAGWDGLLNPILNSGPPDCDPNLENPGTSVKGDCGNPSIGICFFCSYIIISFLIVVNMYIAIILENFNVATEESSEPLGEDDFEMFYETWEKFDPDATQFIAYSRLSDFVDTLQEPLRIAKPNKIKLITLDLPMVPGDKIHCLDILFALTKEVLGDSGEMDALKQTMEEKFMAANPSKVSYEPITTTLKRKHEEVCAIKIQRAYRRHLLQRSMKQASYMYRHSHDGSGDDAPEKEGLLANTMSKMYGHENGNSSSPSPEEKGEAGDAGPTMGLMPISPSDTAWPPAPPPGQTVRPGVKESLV

hNav1.3 = hNav1.3 (Homo sapiens, UniProt Q9NY46); conditions: IonWorks Quattro; Table 9; read-out: IC50 (μM) Nav1.3
hNav1.5 [5] = biological target: T2, hNav1.5; conditions: for Nav1.5/Nav1.7: ratio of PX tonic IC50 values; for IC50: read-out: PX hNav1.5 Tonic IC50
hNav1.4 [6] = biological target: T3, hNav1.4; type: cell-based; conditions: for Nav1.4/Nav1.7: ratio of PX tonic IC50 values; for IC50: read-out: PX hNav1.4 Tonic IC50
hNav1.6 = hNav1.6 (Homo sapiens, UniProt Q9UQD0); type: cell-based; conditions: Table 15
[7] = PatchXpress, tonic block, human Nav1.7
[8] = Table 12, PatchXpress, tonic block

Compound	IC50 (hNav1.7 [1]; [7])	IC50 (mNav1.7)	mNav1.7/hNav1.7 (mNav1.7)	IC50 (hNav1.5 [3])	IC50 (hNav1.4 [4])	Nav1.4/Nav1.7 (hNav1.4 [4])	IC50 (hNav1.3)	IC50 (hNav1.7 [1])	Nav1.5/Nav1.7 (hNav1.5 [5]; Table 13)	IC50 (hNav1.5 [5])	Nav1.4/Nav1.7 (hNav1.4 [6]; Table 13)	IC50 (hNav1.4 [6])	further results
CCCC[C@@H]1NC(=O)[C@H](Cc2c[nH]c3ccccc23)NC(=O)[C@H](CCCCN)NC(=O)[C@H](CCC(N)=O)NC(=O)[C@@H](NC(=O)[C@H](Cc2ccc(O)cc2)NC(=O)[C@@H](N)CC#N)CSSC[C@@H]2NC(=O)[C@@H]3CSSC[C@@H](C(=O)N[C@@H](CCCNC(=N)N)C(=O)N[C@@H](CCCCN)C(=O)N[C@H](C(=O)N[C@H](C(N)=O)[C@@H](C)CC)[C@@H](C)CC)NC(=O)[C@H](Cc4c[nH]c5ccccc45)NC(=O)[C@H](CC(C)C)NC(=O)[C@H](CCCCN)NC(=O)[C@H](CSSC[C@H](NC(=O)[C@H]([C@@H](C)O)NC(=O)[C@H](Cc4c[nH]c5ccccc45)NC1=O)C(=O)N[C@@H](CC(=O)O)C(=O)N[C@@H](CO)C(=O)N[C@@H](CCCCN)C(=O)N[C@@H](CCCNC(=N)N)C(=O)N[C@@H](C)C(=O)N3)NC(=O)[C@H](CCCNC(=N)N)NC(=O)[C@H](CC(C)C)NC(=O)CNC(=O)[C@H](CCC(=O)O)NC2=O [CyA-[Nle6]JzTx-V(1-29)]	0.31 nM	0.957 nM	3.09										
CCCC[C@@H]1NC(=O)[C@H](Cc2c[nH]c3ccccc23)NC(=O)[C@H](CCCCN)NC(=O)[C@H](CCC(N)=O)NC(=O)[C@@H](NC(=O)[C@H](Cc2ccc(O)cc2)NC(=O)[C@H](N)CC(C)C)CSSC[C@@H]2NC(=O)[C@@H]3CSSC[C@@H](C(=O)N[C@@H](CCCNC(=N)N)C(=O)N[C@@H](CCCCN)C(=O)N[C@H](C(=O)N[C@H](C(N)=O)[C@@H](C)CC)[C@@H](C)CC)NC(=O)[C@H](Cc4c[nH]c5ccccc45)NC(=O)[C@H](CC(C)C)NC(=O)[C@H](CCCCN)NC(=O)[C@H](CSSC[C@H](NC(=O)[C@H]([C@@H](C)O)NC(=O)[C@H](Cc4c[nH]c5ccccc45)NC1=O)C(=O)N[C@@H](CC(=O)O)C(=O)N[C@@H](CO)C(=O)N[C@@H](CCCCN)C(=O)N[C@@H](CCCNC(=N)N)C(=O)N[C@@H](C)C(=O)N3)NC(=O)[C@H](CCCNC(=N)N)NC(=O)[C@H](CC(C)C)NC(=O)CNC(=O)[C@H](CCC(=O)O)NC2=O [D-Leu-[Nle6]JzTx-V(1-29)]	0.15 nM	12.6 nM	84.00										
CCCC[C@@H]1NC(=O)[C@H](Cc2c[nH]c3ccccc23)NC(=O)[C@H](CCCCN)NC(=O)[C@H](CCC(N)=O)NC(=O)[C@@H](NC(=O)[C@H](Cc2ccc(O)cc2)NC(=O)[C@@H](N)Cc2c[nH]c3ccccc23)CSSC[C@@H]2NC(=O)[C@@H]3CSSC[C@@H](C(=O)N[C@@H](CCCNC(=N)N)C(=O)N[C@@H](CCCCN)C(=O)N[C@H](C(=O)N[C@H](C(N)=O)[C@@H](C)CC)[C@@H](C)CC)NC(=O)[C@H](Cc4c[nH]c5ccccc45)NC(=O)[C@H](CC(C)C)NC(=O)[C@H](CCCCN)NC(=O)[C@H](CSSC[C@H](NC(=O)[C@H]([C@@H](C)O)NC(=O)[C@H](Cc4c[nH]c5ccccc45)NC1=O)C(=O)N[C@@H](CC(=O)O)C(=O)N[C@@H](CO)C(=O)N[C@@H](CCCCN)C(=O)N[C@@H](CCCNC(=N)N)C(=O)N[C@@H](C)C(=O)N3)NC(=O)[C@H](CCCNC(=N)N)NC(=O)[C@H](CC(C)C)NC(=O)CNC(=O)[C@H](CCC(=O)O)NC2=O [Trp-[Nle6]JzTx-V(1-29)]	0.33 nM	1.34 nM	4.07										
CCCC[C@@H]1NC(=O)[C@H](Cc2c[nH]c3ccccc23)NC(=O)[C@H](CCCCN)NC(=O)[C@H](CCC(N)=O)NC(=O)[C@@H](NC(=O)[C@H](Cc2ccc(O)cc2)NC(=O)[C@@H](N)Cc2cn(CCCOCCOCCOCCOCCOCCOCCOCCOCCOCCOCCN)nn2)CSSC[C@@H]2NC(=O)[C@@H]3CSSC[C@@H](C(=O)N[C@@H](CCCNC(=N)N)C(=O)N[C@@H](CCCCN)C(=O)N[C@H](C(=O)N[C@H](C(N)=O)[C@@H](C)CC)[C@@H](C)CC)NC(=O)[C@H](Cc4c[nH]c5ccccc45)NC(=O)[C@H](CC(C)C)NC(=O)[C@H](CCCCN)NC(=O)[C@H](CSSC[C@H](NC(=O)[C@H]([C@@H](C)O)NC(=O)[C@H](Cc4c[nH]c5ccccc45)NC1=O)C(=O)N[C@@H](CC(=O)O)C(=O)N[C@@H](CO)C(=O)N[C@@H](CCCCN)C(=O)N[C@@H](CCCNC(=N)N)C(=O)N[C@@H](C)C(=O)N3)NC(=O)[C@H](CCCNC(=N)N)NC(=O)[C@H](CC(C)C)NC(=O)CNC(=O)[C@H](CCC(=O)O)NC2=O [compound 247]				4.3 µM	0.15 µM	2	0.13 µM	6 nM	629	3770 nM	1	8 nM	IC50 (hNav1.7 [2]): 0.07 µM
CCCC[C@@H]1NC(=O)[C@H](Cc2c[nH]c3ccccc23)NC(=O)[C@H](CCCCN)NC(=O)[C@H](CCC(N)=O)NC(=O)[C@@H](NC(=O)[C@@H](N)Cc2cn(CCCOCCOCCOCCOCCOCCOCCOCCOCCOCCOCCN)nn2)CSSC[C@@H]2NC(=O)[C@@H]3CSSC[C@@H](C(=O)N[C@@H](CCCNC(=N)N)C(=O)N[C@@H](CCCCN)C(=O)N[C@H](C(=O)N[C@H](C(N)=O)[C@@H](C)CC)[C@@H](C)CC)NC(=O)[C@H](Cc4c[nH]c5ccccc45)NC(=O)[C@H](CC(C)C)NC(=O)[C@H](CCCCN)NC(=O)[C@H](CSSC[C@H](NC(=O)[C@H]([C@@H](C)O)NC(=O)[C@H](Cc4c[nH]c5ccccc45)NC1=O)C(=O)N[C@@H](CC(=O)O)C(=O)N[C@@H](CO)C(=O)N[C@@H](CCCCN)C(=O)N[C@@H](CCCNC(=N)N)C(=O)N[C@@H](C)C(=O)N3)NC(=O)[C@H](CCCNC(=N)N)NC(=O)[C@H](CC(C)C)NC(=O)CNC(=O)[C@H](CCC(=O)O)NC2=O [compound 248]				> 7 µM	0.39 µM and 0.45 µM	4 and 3	0.16 µM and 0.13 µM	1 nM	946	950 nM	15	15 nM	
CCCC[C@@H]1NC(=O)[C@H](Cc2c[nH]c3ccccc23)NC(=O)[C@H](CCCCN)NC(=O)[C@H](CCC(N)=O)NC(=O)[C@@H](NC(=O)[C@@H](N)Cc2ccc(O)cc2)CSSC[C@@H]2NC(=O)[C@@H]3CSSC[C@@H](C(=O)N[C@@H](CCCNC(=N)N)C(=O)N[C@@H](CCCCN)C(=O)N[C@H](C(=O)N[C@H](C(N)=O)[C@@H](C)CC)[C@@H](C)CC)NC(=O)[C@H](Cc4c[nH]c5ccccc45)NC(=O)[C@H](CC(C)C)NC(=O)[C@H](CCCCN)NC(=O)[C@H](CSSC[C@H](NC(=O)[C@H]([C@@H](C)O)NC(=O)[C@H](Cc4c[nH]c5ccccc45)NC1=O)C(=O)N[C@@H](CC(=O)O)C(=O)N[C@@H](Cc1cn(CCCOCCOCCOCCOCCOCCOCCOCCOCCOCCOCCN)nn1)C(=O)N[C@@H](CCCCN)C(=O)N[C@@H](CCCNC(=N)N)C(=O)N[C@@H](C)C(=O)N3)NC(=O)[C@H](CCCNC(=N)N)NC(=O)[C@H](CC(C)C)NC(=O)CNC(=O)[C@H](CCC(=O)O)NC2=O [compound 256]				> 5 µM	0.4 µM and 0.5 µM	4	0.2 µM and 0.4 µM	9.3 nM	200	1860 nM	3	27 nM	
C#CC[C@H](N)C(=O)N[C@@H](CCC(=O)O)C(=O)N[C@H]1CSSC[C@@H]2NC(=O)[C@@H]3CSSC[C@@H](C(=O)N[C@@H](CCCNC(=N)N)C(=O)N[C@@H](CCCCN)C(=O)N[C@@H](CCC(=O)O)C(=O)N[C@H](C(N)=O)[C@@H](C)CC)NC(=O)[C@H](Cc4c[nH]c5ccccc45)NC(=O)[C@H](CC(C)C)NC(=O)[C@H](CCCCN)NC(=O)[C@H](CSSC[C@H](NC(=O)[C@H]([C@@H](C)O)NC(=O)[C@H](Cc4c[nH]c5ccccc45)NC(=O)[C@H](CCCC)NC(=O)[C@H](Cc4c[nH]c5ccccc45)NC(=O)[C@H](CCCCN)NC(=O)[C@H](CCC(N)=O)NC1=O)C(=O)N[C@@H](CC(=O)O)C(=O)N[C@@H](CO)C(=O)N[C@@H](CCCCN)C(=O)N[C@@H](CCCNC(=N)N)C(=O)N[C@@H](C)C(=O)N3)NC(=O)[C@H](CCCNC(=N)N)NC(=O)[C@H](CC(C)C)NC(=O)CNC(=O)[C@H](CCC(=O)O)NC2=O [compound 709]													IC50 (hNav1.7 [1]; [8]): 1.13 nM; IC50 (hNav1.5 [5]; [8]): > 1000 nM; Nav1.5/Nav1.7 (hNav1.5 [5]; Table 12): >887; IC50 (hNav1.4 [6]; [8]): 185 nM; Nav1.4/Nav1.7 (hNav1.4 [6]; Table 12): 164; Nav1.6/Nav1.7 (hNav1.6; ratio of PX tonic IC50 values): 518; IC50 (hNav1.6; read-out: PX hNav1.6 Tonic IC50): 584 nM
